Reference: US6525001B1, “Substituted pyrimidine and pyridine herbicides” (Mid-American Commercialization Corporation, priority 1997, dated 2003)

What was measured:
Assay type in all cases: in vivo
[1] = system: redroot pigweed (Amaranthus retroflexus); test: Test C; design: key: 0 was no effect; 100 was complete control; conditions: PREEMERGENCE
[2] = system: large crabgrass (Digitaria sanguinalis); test: Test C; design: key: 0 was no effect; 100 was complete control; conditions: PREEMERGENCE
[3] = system: lambsquarters (Chenopodium album); test: Test C; design: key: 0 was no effect; 100 was complete control; conditions: PREEMERGENCE
[4] = system: sandbur (Cenchrus echinatus); test: Test E pre-/postemergence/post directed; conditions: PREEMERGENCE
Text: (§1) Seeds, tubers, or plant parts of alexandergrass (Brachiaria plantaginea), annual bluegrass (Poa annua), arrowleaf sida (Sida rhombifolia), barnyardgrass (Echinochloa crus-galli), bermudagrass (Cynodon dactylon), citrus (Citrus sinensis), common chickweed (Stellaria media), common purslane (Portulaca oleracea), common ragweed (Ambrosia elatior), common groundsel (Senecio vulgaris), dallisgrass (Paspalum dilatatum), goosegrass (Eleusine indica), green foxtail (Setaria viridis), guineagrass (Panicum maximum), itchgrass (Rottboellia exaltata), johnson grass (Sorghum halepense), kochia (Kochia scoparia), large crabgrass (Digitaria sanguinalis), leafy spurge (Euphorbia esula), pitted morningglory (Ipomoea lacunosa), purple nutsedge (Cyperus rotundus), quackgrass (Agropyron repens), Russian thistle (Salsola kali), sandbur (Cenchrus echinatus), sourgrass (Trichachne insularis), Spanishneedles (Bidens bipinnata), sugarcane (Saccharum officinarum), surinam grass (Brachiaria decumbens) and tall mallow (Malva sylvestris) were planted into greenhouse pots of flats containing greenhouse planting medium. Plant species were grown grown in separate pots or individual compartments. Preemergence applications were made within one day of planting the seed or plant part. Postemergence applications were applied when the plants were in the two to four leaf stage (three to twenty cm).
(§2) Test chemicals were formulated in a non-phytotoxic solvent mixture which included a surfactant and applied preemergence to the soil surface, postemergence to the plants or as a post directed spray to plants and soil at the base of the target species. Untreated control plants and treated plants were placed in the greenhouse and visually evaluated for injury 13 to 21 days after herbicide application. Plant response ratings, summarized in Table E, are based on a 0 to 100 scale where 0 is no injury and 100 is complete control. A dash (−) response means no test result.

[5] = system: johnson grass (Sorghum halepense); test: Test E pre-/postemergence/post directed
Text: as §1, §2

[6] = system: common groundsel (Senecio vulgaris); test: Test E pre-/postemergence/post directed
Text: as §1, §2

[7] = system: alexandergrass (Brachiaria plantaginea); test: Test E pre-/postemergence/post directed
Text: as §1, §2

[8] = system: Spanishneedles (Bidens bipinnata); test: Test E pre-/postemergence/post directed
Text: as §1, §2

[9] = system: itchgrass (Rottboellia exaltata); test: Test E pre-/postemergence/post directed
Text: as §1, §2

[10] = system: large crabgrass (Digitaria sanguinalis); test: Test E pre-/postemergence/post directed
Text: as §1, §2

[11] = system: common ragweed (Ambrosia elatior); test: Test E pre-/postemergence/post directed
Text: as §1, §2

[12] = system: pitted morningglory (Ipomoea lacunosa); test: Test E pre-/postemergence/post directed
Text: as §1, §2

[13] = system: bermudagrass (Cynodon dactylon); test: Test E pre-/postemergence/post directed
Text: as §1, §2

[14] = system: surinam grass (Brachiaria decumbens); test: Test E pre-/postemergence/post directed
Text: as §1, §2

[15] = system: purple nutsedge (Cyperus rotundus); test: Test E pre-/postemergence/post directed; design: key: 0 is no injury; 100 is complete control
Text: as §1, §2

[16] = system: ivyleaf morningglory (Ipomoea hederacea); test: Test C; conditions: PREEMERGENCE
[17] = system: wild poinsettia (Euphorbia heterophylla); test: Test C; design: key: 0 was no effect; 100 was complete control; conditions: PREEMERGENCE
[18] = system: barnyardgrass (Echinochloa crus-galli); test: Test C; conditions: PREEMERGENCE
[19] = system: fall panicum (Panicum dichotomiflorum); test: Test C; design: key: 0 was no effect; 100 was complete control; conditions: PREEMERGENCE
[20] = system: eastern black nightshade (Solanum ptycanthum); test: Test C; conditions: PREEMERGENCE
[21] = system: arrowleaf sida (Sida rhombifolia); test: Test C; conditions: PREEMERGENCE

Cc1cnc(-c2ccc(C(F)(F)F)cc2)nc1Cc1cccc(OC(F)(F)F)c1 [Compound 15]
Plant response rating, Redroot pigweed ([1]; Rate 35 g/ha): 60
Plant response rating, Redroot pigweed ([1]; Rate 70 g/ha): 85
Plant response rating, Redroot pigweed ([1]; Rate 140 g/ha): 100
Plant response rating, Large crabgrass ([2]; Rate 35 g/ha): 100
Plant response rating, Large crabgrass ([2]; Rate 70 g/ha): 100
Plant response rating, Large crabgrass ([2]; Rate 140 g/ha): 100
Plant response rating, Lambsquarters ([3]; Rate 35 g/ha): 0
Plant response rating, Lambsquarters ([3]; Rate 70 g/ha): 20
Plant response rating, Lambsquarters ([3]; Rate 140 g/ha): 60
Plant response rating, Sandbur ([4]; Rate 32 g/ha): 10
Plant response rating, Sandbur ([4]; Rate 64 g/ha): 20
Plant response rating, Sandbur ([4]; Rate 125 g/ha): 50
Plant response rating, Johnsongrass ([5]; POSTEMERGENCE, Rate 125 g/ha): 98
Plant response rating, Johnsongrass ([5]; PREEMERGENCE, Rate 32 g/ha): 60
Plant response rating, Johnsongrass ([5]; PREEMERGENCE, Rate 64 g/ha): 90
Plant response rating, Johnsongrass ([5]; PREEMERGENCE, Rate 125 g/ha): 90
Plant response rating, Com. groundsel ([6]; POSTEMERGENCE, Rate 250 g/ha): 20
Plant response rating, Com. groundsel ([6]; PREEMERGENCE, Rate 64 g/ha): 98
Plant response rating, Alexandergrass ([7]; POSTEMERGENCE, Rate 125 g/ha): 10
Plant response rating, Alexandergrass ([7]; POSTEMERGENCE, Rate 250 g/ha): 20
Plant response rating, Alexandergrass ([7]; PREEMERGENCE, Rate 32 g/ha): 75
Plant response rating, Alexandergrass ([7]; PREEMERGENCE, Rate 64 g/ha): 80
Plant response rating, Spanishneedles ([8]; POSTEMERGENCE, Rate 125 g/ha): 5
Plant response rating, Spanishneedles ([8]; POSTEMERGENCE, Rate 250 g/ha): 10
Plant response rating, Spanishneedles ([8]; PREEMERGENCE, Rate 32 g/ha): 50
Plant response rating, Spanishneedles ([8]; PREEMERGENCE, Rate 64 g/ha): 30
Plant response rating, Spanishneedles ([8]; PREEMERGENCE, Rate 125 g/ha): 98
Plant response rating, Itchgrass ([9]; POSTEMERGENCE, Rate 125 g/ha): 80
Plant response rating, Itchgrass ([9]; POSTEMERGENCE, Rate 250 g/ha): 85
Plant response rating, Itchgrass ([9]; PREEMERGENCE, Rate 32 g/ha): 10
Plant response rating, Itchgrass ([9]; PREEMERGENCE, Rate 64 g/ha): 30
Plant response rating, Itchgrass ([9]; PREEMERGENCE, Rate 125 g/ha): 60
Plant response rating, Itchgrass ([9]; PREEMERGENCE, Rate 250 g/ha): 80
Plant response rating, Large crabgrass ([10]; POSTEMERGENCE, Rate 125 g/ha): 10
Plant response rating, Large crabgrass ([10]; POSTEMERGENCE, Rate 250 g/ha): 40
Plant response rating, Large crabgrass ([10]; PREEMERGENCE, Rate 32 g/ha): 98
Plant response rating, Com. ragweed ([11]; POSTEMERGENCE, Rate 125 g/ha): 5
Plant response rating, Com. ragweed ([11]; POSTEMERGENCE, Rate 250 g/ha): 10
Plant response rating, Com. ragweed ([11]; PREEMERGENCE, Rate 125 g/ha): 98
Plant response rating, P. morninglory ([12]; POSTEMERGENCE, Rate 125 g/ha): 5
Plant response rating, P. morninglory ([12]; POSTEMERGENCE, Rate 250 g/ha): 5
Plant response rating, P. morninglory ([12]; PREEMERGENCE, Rate 32 g/ha): 5
Plant response rating, P. morninglory ([12]; PREEMERGENCE, Rate 64 g/ha): 40
Plant response rating, P. morninglory ([12]; PREEMERGENCE, Rate 125 g/ha): 75
Plant response rating, P. morninglory ([12]; PREEMERGENCE, Rate 250 g/ha): 90
Plant response rating, Bermudagrass ([13]; POSTEMERGENCE, Rate 125 g/ha): 20
Plant response rating, Bermudagrass ([13]; POSTEMERGENCE, Rate 250 g/ha): 20
Plant response rating, Bermudagrass ([13]; PREEMERGENCE, Rate 32 g/ha): 98
Plant response rating, Bermudagrass ([13]; PREEMERGENCE, Rate 64 g/ha): 98
Plant response rating, Bermudagrass ([13]; PREEMERGENCE, Rate 125 g/ha): 98
Plant response rating, Bermudagrass ([13]; PREEMERGENCE, Rate 250 g/ha): 98
Plant response rating, Surinam grass ([14]; POSTEMERGENCE, Rate 125 g/ha): 35
Plant response rating, Surinam grass ([14]; POSTEMERGENCE, Rate 250 g/ha): 40
Plant response rating, Surinam grass ([14]; PREEMERGENCE, Rate 32 g/ha): 20
Plant response rating, Surinam grass ([14]; PREEMERGENCE, Rate 64 g/ha): 20
Plant response rating, Purple nutsedge ([15]; POSTEMERGENCE, Rate 125 g/ha): 0
Plant response rating, Purple nutsedge ([15]; POSTEMERGENCE, Rate 250 g/ha): 0
Plant response rating, Purple nutsedge ([15]; PREEMERGENCE, Rate 32 g/ha): 0
Plant response rating, Purple nutsedge ([15]; PREEMERGENCE, Rate 64 g/ha): 0
Plant response rating, Purple nutsedge ([15]; PREEMERGENCE, Rate 125 g/ha): 0
Plant response rating, Purple nutsedge ([15]; PREEMERGENCE, Rate 250 g/ha): 0
Plant response rating, I. morningglory ([16]; Rate 35 g/ha): 15
Plant response rating, I. morningglory ([16]; Rate 70 g/ha): 20
Plant response rating, I. morningglory ([16]; Rate 140 g/ha): 65
Plant response rating, Wild poinsettia ([17]; Rate 35 g/ha): 0
Plant response rating, Wild poinsettia ([17]; Rate 70 g/ha): 0
Plant response rating, Wild poinsettia ([17]; Rate 140 g/ha): 20
Plant response rating, Barnyardgrass ([18]; Rate 35 g/ha): 10
Plant response rating, Barnyardgrass ([18]; Rate 70 g/ha): 35
Plant response rating, Barnyardgrass ([18]; Rate 140 g/ha): 85
Plant response rating, Fall panicum ([19]; Rate 35 g/ha): 40
Plant response rating, Fall panicum ([19]; Rate 70 g/ha): 80
Plant response rating, Fall panicum ([19]; Rate 140 g/ha): 100
Plant response rating, E. blacknightsh ([20]; Rate 35 g/ha): 70
Plant response rating, E. blacknightsh ([20]; Rate 70 g/ha): 95
Plant response rating, E. blacknightsh ([20]; Rate 140 g/ha): 95
Plant response rating, Arrowleaf sida ([21]; Rate 35 g/ha): 80
Plant response rating, Arrowleaf sida ([21]; Rate 70 g/ha): 85
Plant response rating, Arrowleaf sida ([21]; Rate 140 g/ha): 85
